Assay: Human HepG2 cell viability assay in 384 well format
Type: toxicity, cell-based
Set-up: dose 125 nL, time 70.5 hour; concentration not given beside the values
Conditions: HepG2 cells, read-out: Inhibition

Row | SMILES | cytotoxicity at 70.5 h [%]
1 | CCOC(=O)C1CCCCN1Cc1c[nH]nc1-c1ccc(F)cc1F (centres undefined) | -7.54
2 | Cc1nc(C2CCCNC2)cc(N(C)CCc2ccccc2)n1 (centres undefined) | 20.6
3 | CC(C)(C)c1cn(C2CCN(C(=O)c3cnccn3)CC2)nn1 | -13.1
4 | CN(CCCc1cnn(C)c1)Cc1cc2n(n1)CCCN(C)C2 | -7.1
5 | COc1cc2ncn(Cc3ncc[nH]3)c(=O)c2cc1OC | -23.4
6 | O=C(O)c1ccnc(-c2ccnc(COc3ccc(Cl)cc3)n2)c1 | -9.69
7 | Cc1ccccc1Oc1ncccc1CNC(=O)Cn1cccnc1=O | 3.17
8 | COc1cccc(OCC2CCCN(C(=O)CCn3ccnc3)C2)c1 (centres undefined) | 11.7
9 | CCc1nc(N2CCCC(CO)(CCOC)C2)ncc1C (centres undefined) | -7.73
10 | Cc1ncsc1CCC(=O)N(C)Cc1nc2ccccc2n1C | -1.06
11 | O=C(c1ccc(Cn2cnnn2)cc1)N1CCC(c2ccncc2)CC1 | -3.04
12 | CC(C)N1CC(C(=O)N2CCc3c(nc(CC4CC4)[nH]c3=O)C2)CC1=O (centres undefined) | -2.23
13 | CCCN1CCC(CC(=O)N(C)C(C)c2cncs2)CC1 (centres undefined) | -16.1
14 | CCOC(=O)c1ccc(N2CCN(Cc3c(C)nn(C)c3Cl)CC2)nc1 | 12.7
15 | CO[C@H]1C[C@@H](O)C12CCN(Cc1nc(C(F)(F)F)no1)CC2 | -10.9
16 | Cc1noc(C)c1CCCNc1cnccn1 | -16.9
17 | CC(C)CN1CC2(CCN(C(=O)C(O)c3ccccc3Cl)CC2)CC1=O (centres undefined) | -5.68
18 | CCc1ccccc1-c1cc(C)nc(N)n1 | -7.75
19 | COCc1cc(CNCc2c(C)n(CC(N)=O)c3ccccc23)n[nH]1 | -9.7
20 | Cc1cc(N2CCN(C(=O)Cc3c(C)nc(C)[nH]c3=O)CC2)cc(C)n1 | 18.5
21 | CCc1ccc(CN2CCC(c3ccccc3C(=O)O)C2)nc1 (centres undefined) | -13.9
22 | COc1ccccc1Oc1ncccc1CNC(=O)C(C)CN (centres undefined) | -9.25

Row | SMILES | cytotoxicity at 70.5 h [%]
23 | CCc1nc(C)c([C@H]2CN(C)C[C@@H]2C(=O)Nc2cccc3cn[nH]c23)[nH]1 | -5.72
24 | CCCn1cc(-c2cc(-c3cc(CC)n[nH]3)c(C#N)c(N)n2)c(C)n1 | -3.18
25 | O=C(CN1CCCCCC1)NCc1ccc2[nH]c(=O)[nH]c2c1 | -8.16
26 | COc1cc(C(=O)N2C[C@H]3CC[C@@H]2CN(Cc2cscn2)C3)ccn1 | -22.3
27 | O=C(CCc1cn[nH]c1)N1C[C@@H](CN2CCOCC2)C[C@H](CO)C1 | 8.69
28 | Cc1nc(C(C)C)sc1C(=O)N1CCC(N2CCSCC2)CC1 | -12.7
29 | CCN(Cc1cn(C)nc1-c1ccc2c(c1)OCCO2)CC1CCCO1 (centres undefined) | -6.76
30 | CCc1noc(CN2C[C@H]3CC[C@@H]2CN(C2Cc4ccccc4C2)C3)n1 | 4.55
31 | CCc1cc(N2CCN(c3ccc(Cl)cn3)CC2)n2nccc2n1 | -1.55
32 | Cn1cc(C(=O)N2CCC(c3nccn3Cc3ccncc3)CC2)cn1 | -7.19
33 | COc1ccc2cc(CN(C)CCN3CCCCC3=O)c(=O)[nH]c2c1 | -12.2
34 | CC(C)c1nc(CN(C)Cc2ccc(O)c(C(=O)O)c2)cs1 | -4.7
35 | O=C(CCc1cc2n(n1)CCN(CCCn1cccc1)C2)N1CCCC1 | -10.4
36 | O=C(Cc1ccc(CO)cc1)N1CCN(c2ccccc2Cl)C(=O)C1 | -9.48
37 | CS(=O)(=O)c1cnc(C2CCCC2)nc1C1CCCNC1 (centres undefined) | 1.49
38 | CCCOCC(=O)N1CCCC(c2nnc(CN3CCCCC3)n2C)C1 (centres undefined) | 9.63
39 | Cc1ccc(N2CCC(C3CCN(CC(C)C)CC3)C2)nn1 (centres undefined) | -6.28
40 | CCc1cnc(N2Cc3cnc(C(C)(C)C)nc3C2)nc1 | -3.57
41 | COc1ccc(-c2cc(C3CCOC3)c(C#N)c(N)n2)cn1 (centres undefined) | 18.9
42 | Cn1ccnc1-c1cn(CCc2nnc(N)s2)nn1 | 43.6
43 | CCn1c(C2CCNCC2)nn(CCn2cncn2)c1=O | -6.69
44 | Cc1cncc(C(=O)N2CCNCC2C(=O)NCc2ccncc2)c1 (centres undefined) | -1.53
